Test results taken from ChEMBL document CHEMBL4052628, “Synthesis and cytotoxicity of a novel series of saframycin-ecteinascidin analogs containing tetrahydro-β-carboline moieties” (Eur J Med Chem, 2017).

What was measured:
Format in all cases: functional, cell-based
HT-29 = test: Cytotoxicity against human HT-29 cells assessed as reduction in cell viability after 72 hrs by MTT assay; conditions: HT-29, 72 h
HepG2 = test: Cytotoxicity against human HepG2 cells assessed as reduction in cell viability after 72 hrs by MTT assay; conditions: HepG2, 72 h
BGC-823 = test: Cytotoxicity against human BGC823 cells assessed as reduction in cell viability after 72 hrs by MTT assay; conditions: BGC-823, 72 h
A2780 = test: Cytotoxicity against human A2780 cells assessed as reduction in cell viability after 72 hrs by MTT assay; conditions: A2780, 72 h
HCT-116 = test: Cytotoxicity against human HCT116 cells assessed as reduction in cell viability after 72 hrs by MTT assay; conditions: HCT-116, 72 h
MCF7 = test: Cytotoxicity against human MCF7 cells assessed as reduction in cell viability after 72 hrs by MTT assay; conditions: MCF7, 72 h

| Structure (SMILES) | IC50 (HT-29) [nM] | IC50 (HepG2) [nM] | IC50 (BGC-823) [nM] | IC50 (A2780) [nM] | IC50 (HCT-116) [nM] | IC50 (MCF7) [nM] |
| --- | --- | --- | --- | --- | --- | --- |
| CN1[C@@H]2c3[nH]c4ccccc4c3C[C@H]1[C@H](C#N)N1[C@@H](CNC(=O)c3cccc(C(F)(F)F)c3)c3[nH]c4ccccc4c3C[C@@H]21 | 140 | 340 | 870 | 210 | 630 | 110 |
| CN1[C@@H]2c3[nH]c4ccccc4c3C[C@H]1[C@H](C#N)N1[C@@H](CNC(=O)c3cccc4c3CCCC4)c3[nH]c4ccccc4c3C[C@@H]21 | 3340 | 540 | 3540 | 810 | 4210 | 4470 |
| CN1[C@@H]2c3[nH]c4ccccc4c3C[C@H]1[C@H](C#N)N1[C@@H](CNC(=O)c3ccc(Cl)cc3)c3[nH]c4ccccc4c3C[C@@H]21 | 130 | 350 | 110 | 230 | 630 | 610 |
| CN1[C@@H]2c3[nH]c4ccccc4c3C[C@H]1[C@H](C#N)N1[C@@H](CNC(=O)c3ccc4ccccc4c3)c3[nH]c4ccccc4c3C[C@@H]21 | 4940 | 1210 | 1110 | 1030 | 420 | 4650 |
| COc1ccc(C(=O)NC[C@H]2c3[nH]c4ccccc4c3C[C@H]3[C@H]4c5[nH]c6ccccc6c5C[C@@H]([C@H](C#N)N23)N4C)cc1 | 840 | 310 | 320 | 320 | 430 | 600 |
| CN1[C@@H]2c3[nH]c4ccccc4c3C[C@H]1[C@H](C#N)N1[C@@H](CNC(=O)c3cc4ccccc4[nH]3)c3[nH]c4ccccc4c3C[C@@H]21 | 1220 | 440 | 1690 | 7100 | 880 | 9780 |
| CC(=O)NC[C@H]1c2[nH]c3ccccc3c2C[C@H]2[C@H]3c4[nH]c5ccccc5c4C[C@@H]([C@H](C#N)N12)N3C | 1180 | 420 | 2200 | 630 | 4340 | 5300 |
| CN1[C@@H]2c3[nH]c4ccccc4c3C[C@H]1[C@H](C#N)N1[C@@H](CNC(=O)c3cccs3)c3[nH]c4ccccc4c3C[C@@H]21 | 1330 | 180 | 280 | 230 | 550 | 470 |
| CN1[C@@H]2c3[nH]c4ccccc4c3C[C@H]1[C@H](C#N)N1[C@@H](CNC(=O)c3ccccn3)c3[nH]c4ccccc4c3C[C@@H]21 | 70 | 70 | 80 | 30 | 40 | 40 |
| CN1[C@@H]2c3[nH]c4ccccc4c3C[C@H]1[C@H](C#N)N1[C@@H](CNC(=O)/C=C/c3cccc(C(F)(F)F)c3)c3[nH]c4ccccc4c3C[C@@H]21 | 5060 | 540 | 910 | > 10000 | 610 | 110 |
| CN1[C@@H]2c3[nH]c4ccccc4c3C[C@H]1[C@H](C#N)N1[C@@H](CN3C(=O)c4ccccc4C3=O)c3[nH]c4ccccc4c3C[C@@H]21 | 80 | 20 | 410 | 80 | 40 | 610 |
| CN1[C@@H]2c3[nH]c4ccccc4c3C[C@H]1[C@H](C#N)N1[C@@H](CNC(=O)c3ccc4ccccc4n3)c3[nH]c4ccccc4c3C[C@@H]21 | 150 | 110 | 80 | 60 | 240 | 150 |
| CCc1ccc(C(=O)NC[C@H]2c3[nH]c4ccccc4c3C[C@H]3[C@H]4c5[nH]c6ccccc6c5C[C@@H]([C@H](C#N)N23)N4C)cc1 | 3560 | 570 | 660 | 670 | 100 | 170 |
| COc1ccc(/C=C/C(=O)NC[C@H]2c3[nH]c4ccccc4c3C[C@H]3[C@H]4c5[nH]c6ccccc6c5C[C@@H]([C@H](C#N)N23)N4C)cc1 | 3060 | 2140 | 5450 | 860 | 5060 | 4220 |
| CN1[C@@H]2c3[nH]c4ccccc4c3C[C@H]1[C@H](C#N)N1[C@@H](CNC(=O)c3ccccc3)c3[nH]c4ccccc4c3C[C@@H]21 | 140 | 250 | 740 | 200 | 430 | 9670 |
| CN1[C@@H]2c3[nH]c4ccccc4c3C[C@H]1[C@H](C#N)N1[C@@H](CNC(=O)/C=C/c3ccccc3)c3[nH]c4ccccc4c3C[C@@H]21 | 1400 | 470 | 4300 | 770 | 1960 | 7190 |
| CN1[C@@H]2c3[nH]c4ccccc4c3C[C@H]1[C@H](C#N)N1[C@@H](CNC(=O)c3cc4ccccc4o3)c3[nH]c4ccccc4c3C[C@@H]21 | 850 | 280 | 210 | 230 | 330 | 320 |
| CN1[C@@H]2c3[nH]c4ccccc4c3C[C@H]1[C@H](C#N)N1[C@@H](CNC(=O)c3ccc(F)cc3)c3[nH]c4ccccc4c3C[C@@H]21 | 1370 | 210 | 310 | 250 | 140 | 980 |
| CN1[C@@H]2c3[nH]c4ccccc4c3C[C@H]1[C@H](C#N)N1[C@@H](CNC(=O)c3ccco3)c3[nH]c4ccccc4c3C[C@@H]21 | 100 | 250 | 300 | 120 | 170 | 160 |
| CN1[C@@H]2c3[nH]c4ccccc4c3C[C@H]1[C@H](C#N)N1[C@@H](CNC(=O)c3cc4ccccc4s3)c3[nH]c4ccccc4c3C[C@@H]21 | 640 | 300 | 240 | 20 | 500 | 3180 |
